The test system of test [1] is C. parvum. Kind of test: 48 h Cryptosporidium growth inhibition assay. Type of test: cell-based, Cryptosporidium parvum. The following applies: compound added 3 h post-infection, read at 48 h. From the text:
As a first step in developing specific Cryptosporidium mode of action assays, we conducted a series of light microscopy time-lapse and transmission electron microscopy (TEM) time course experiments in order to precisely define C. parvum development within the HCT-8 cell culture system. […] This synchronicity was exploited by modifying a previously developed high-content microscopy assay. These assay modifications enabled the evaluation of several key events within the life cycle: host cell invasion, intracellular replication, host cell egress and establishment of new parasitophorous vacuoles, and sexual differentiation. […] Since the methods all used automated liquid handling, imaging, and image analysis, the assay methods all incorporated nuclear staining to monitor host cell numbers and enable recognition of HCT-8 cell monolayer damage, for example as an artifact from a malfunctioning plate washer or from unanticipated cytotoxicity of the compounds.
Human ileocecal adenocarcinoma (HCT-8) cells were purchased from ATCC (catalog# CCL-244) and cultured in ATCC modified RPMI-1640 medium (Gibco, catalog# A10491–01), supplemented with 10% heat-inactivated fetal bovine serum (Sigma-Aldrich, catalog# 12306C) and 120 U/mL penicillin and 120 μg/mL streptomycin (Gibco, catalog# 15140-122) (culture media). […] For all experiments, HCT-8 cells between passages 9 and 39 were used. C. parvum (Iowa isolate) oocysts were purchased from Bunchgrass Farm (Deary, ID), stored at 4 °C and used within 5 months of collection from an infected calf. To induce excystation, oocysts were first treated with 10 mM hydrochloric acid for 10 min at 37 °C, spun at 14,000×g for 4.5 min at room temperature, treated with 2 mM sodium taurocholate for 10 min at 16 °C, spun as before, and resuspended in culture media for infection.
A modification of a previously reported immunofluorescence assay was used to determine the EC50 and EC90 of compounds[13]. HCT-8 cells were grown to ≥ 90% confluence in 384-well plates (Corning, catalog# 353962) and infected with 5500 oocysts per well after they were induced for excystation as described above. Different concentrations of compounds were added 3 h post-infection and plates were incubated for another 45 h in a 5% CO2 incubator at 37 °C. Wells were then washed 3 times with PBS containing 111 mM D-galactose (PBS-D-gal), fixed with 4% paraformaldehyde (PFA) in PBS for 15 min at room temperature, permeabilized with 0.25% Triton X-100 for 10 min at 37 °C, washed 3 times with PBS with 0.1% Tween 20, and blocked with 4% bovine serum albumin (BSA) in PBS for 2 h at 37 °C or 4 °C overnight. Parasitophorous vacuoles were stained with 1.33 µg/mL of fluorescein-labeled Vicia villosa lectin (Vector Laboratories, catalog# FL-1231) diluted in 1% BSA in PBS with 0.1% Tween 20 for 1 h at 37 °C, followed by addition of Hoechst 33258 (AnaSpec, catalog# AS-83219) at 0.09 mM diluted in water for another 15 min at 37 °C. Wells were then washed 5 times with PBS containing 0.1% Tween 20. A Nikon Eclipse Ti2000 epifluorescence microscope with an automated stage was programmed using NIS-Elements Advanced Research software (Nikon, USA) to focus on the center of each well and take a 3 × 3 or 6 × 6 composite image using an EXi blue fluorescence microscopy camera (QImaging, Canada) with a 20 × objective (NA = 0.45). Nuclei and parasite images were separately exported as.tif files and analyzed using macros developed on the ImageJ platform (National Institutes of Health)[13].

Test [2] relates to C. parvum. The following applies: ref Jumani, et al. 2018. AAC.; cited from earlier work.
The subject of test [3] is C. parvum. Briefly: Egress, motility, reinvasion assay (PV ratio). The following applies: compound at EC90; for Egress and Reinvasion Assay: Mean PV ratios (19.5h:6h), Average: average of replicates; for Egress and Reinvasion Assay: Mean PV ratios (19.5h:6h), Replicate 1a: single replicate 1; for Egress and Reinvasion Assay: Mean PV ratios (19.5h:6h), Replicate 2a: single replicate 2; for Egress and Reinvasion Assay: Mean PV ratios (19.5h:6h), Replicate 3a: single replicate 3; for Egress and Reinvasion Assay: Mean PV ratios (19.5h:6h), Replicate 4a: single replicate 4.
Procedure: For quantification of parasitophorous vacuoles over time, HCT-8 cells were grown to greater than 90% confluence in 384-well plates and infected with 11,000 oocysts after triggering excystation.

The subject of a further test is Cryptosporidium. The following applies: ref Castellanos-Gonzalez, et al. 2013. JID. and Love, et al. 2017. PLoS NTD.; cited from earlier work.
Where [4] appears, read: Cryptosporidium parvum, HCT-8, read-out: Regular 3 to 48 h assay in vitro EC90, C. parvum in HCT-8 cells.
Setting [5] is: read-out: Regular 3 to 48 h assay in vitro EC90, C. parvum in HCT-8 cells.

The values that follow come from paper PMC6478823, “A suite of phenotypic assays to ensure pipeline diversity when prioritizing drug-like Cryptosporidium growth inhibitors” (Nature Communications, 2019).

Like-named read-outs stand apart in the source and are kept apart here.

As for `NC[C@@H]1O[C@H](O[C@H]2[C@@H](O)[C@H](O[C@@H]3[C@@H](O)[C@H](N)C[C@H](N)[C@H]3O[C@H]3O[C@H](CO)[C@@H](O)[C@H](O)[C@H]3N)O[C@@H]2CO)[C@H](N)[C@@H](O)[C@@H]1O` [Paromomycin], in the test with C. parvum [1] (setting [4]), the concentration for an effect of 90% (EC90) turned out to be 2390 µM. The “activity in NSG mouse model” value in the test with C. parvum [2] was “active”. Besides, in the test with C. parvum [3], the “Egress and Reinvasion Assay: Mean PV ratios (19.5h:6h), Average” value came out at 2.15; the “Egress and Reinvasion Assay: Mean PV ratios (19.5h:6h), Replicate 1a” value is recorded as 2.19; the “Egress and Reinvasion Assay: Mean PV ratios (19.5h:6h), Replicate 2a” value turned out to be 2.11.

As for `CCC(C)n1ncn(-c2ccc(N3CCN(c4ccc(OCC5COC(Cn6cncn6)(c6ccc(Cl)cc6Cl)O5)cc4)CC3)cc2)c1=O` (centres unmarked) [Itraconazole], the EC90 in the test on C. parvum [1] (setting [4]) came to 7.24 µM. Moreover, in the test on C. parvum [3], the “Egress and Reinvasion Assay: Mean PV ratios (19.5h:6h), Average” value was found to be 1.77; the “Egress and Reinvasion Assay: Mean PV ratios (19.5h:6h), Replicate 1a” value came out at 2.21; the “Egress and Reinvasion Assay: Mean PV ratios (19.5h:6h), Replicate 2a” value was determined as 1.33.

As for `COc1ccc(Nc2nc(NCc3ccccc3Cl)c3ccccc3n2)cc1Cl` [B-13], the EC90 in the test on C. parvum [1] (setting [5]) was 1.39 µM. For the same compound, in the test on C. parvum [3], the “Egress and Reinvasion Assay: Mean PV ratios (19.5h:6h), Average” value was 1.42; the “Egress and Reinvasion Assay: Mean PV ratios (19.5h:6h), Replicate 1a” value is recorded as 1.37; the “Egress and Reinvasion Assay: Mean PV ratios (19.5h:6h), Replicate 2a” value amounted to 1.48.

For the compound `CN(C)c1ccc(C(=C2C=CC(=[N+](C)C)C=C2)c2ccc(N(C)C)cc2)cc1` [Gentian Violet], in the test with C. parvum [1] (setting [5]), the 90% effect concentration (EC90) turned out to be 1.05 µM. In the test with C. parvum [3], the “Egress and Reinvasion Assay: Mean PV ratios (19.5h:6h), Average” value worked out at 1.37; the “Egress and Reinvasion Assay: Mean PV ratios (19.5h:6h), Replicate 1a” value stood at 1.01; the “Egress and Reinvasion Assay: Mean PV ratios (19.5h:6h), Replicate 2a” value is recorded as 1.73.

With `CCOc1ccc(Cl)c2c1B(O)OC2CN` (centres unmarked) [AN6426], in the test with C. parvum [1] (setting [5]), the EC90 is 19.5 µM. For the same compound, in the test with C. parvum [3], the “Egress and Reinvasion Assay: Mean PV ratios (19.5h:6h), Average” value is 0.93; the “Egress and Reinvasion Assay: Mean PV ratios (19.5h:6h), Replicate 1a” value was 1.07; the “Egress and Reinvasion Assay: Mean PV ratios (19.5h:6h), Replicate 2a” value amounted to 1.05; the “Egress and Reinvasion Assay: Mean PV ratios (19.5h:6h), Replicate 3a” value was 0.86. Further, in the test on C. parvum [3], the “Egress and Reinvasion Assay: Mean PV ratios (19.5h:6h), Replicate 4a” value is 0.75.

As for `O=C(NC(c1ccccc1)c1ccc2cccnc2c1O)c1ccccc1` (centres unmarked) [A-5], in the test on C. parvum [1] (setting [5]), the EC90 was found to be 4.35 µM. In the test with C. parvum [3], the “Egress and Reinvasion Assay: Mean PV ratios (19.5h:6h), Average” value was 0.32; the “Egress and Reinvasion Assay: Mean PV ratios (19.5h:6h), Replicate 1a” value turned out to be 0.55; the “Egress and Reinvasion Assay: Mean PV ratios (19.5h:6h), Replicate 2a” value is on record as 0.10.

For the compound `CCOc1ccc2cc(-c3nn(CC4CCN(C)CC4)c4ncnc(N)c34)ccc2n1` [BKI-1369], in the test on C. parvum [1] (setting [5]), the EC90 was found to be 17.7 µM. In the test with C. parvum [3], the “Egress and Reinvasion Assay: Mean PV ratios (19.5h:6h), Average” value is recorded as 1.41; the “Egress and Reinvasion Assay: Mean PV ratios (19.5h:6h), Replicate 1a” value came out at 1.20; the “Egress and Reinvasion Assay: Mean PV ratios (19.5h:6h), Replicate 2a” value worked out at 1.62.

As to `O=C(CC1NCCCC1O)Cn1cnc2cc(Br)c(Cl)cc2c1=O` (centres unmarked) [Halofuginone], the EC90 in the test on C. parvum [1] (setting [4]) was 0.34 µM. For the same compound, in the test with C. parvum [3], the “Egress and Reinvasion Assay: Mean PV ratios (19.5h:6h), Average” value amounted to 0.69; the “Egress and Reinvasion Assay: Mean PV ratios (19.5h:6h), Replicate 1a” value is given as 0.76; the “Egress and Reinvasion Assay: Mean PV ratios (19.5h:6h), Replicate 2a” value turned out to be 1.01; the “Egress and Reinvasion Assay: Mean PV ratios (19.5h:6h), Replicate 3a” value is listed as 0.53. Further, in the test on C. parvum [3], the “Egress and Reinvasion Assay: Mean PV ratios (19.5h:6h), Replicate 4a” value is recorded as 0.46.

In the case of `CC(=O)O[C@@]12CO[C@@H]1C[C@H](O)[C@@]1(C)C(=O)[C@H](O)C3=C(C)[C@@H](OC(=O)[C@H](O)[C@@H](NC(=O)OC(C)(C)C)c4ccccc4)C[C@@](O)([C@@H](OC(=O)c4ccccc4)[C@H]21)C3(C)C` [Docetaxel], the EC90 in the test with C. parvum [1] (setting [4]) turned out to be 1 µM. In the test on C. parvum [3], the “Egress and Reinvasion Assay: Mean PV ratios (19.5h:6h), Average” value came to 1.76; the “Egress and Reinvasion Assay: Mean PV ratios (19.5h:6h), Replicate 1a” value was determined as 1.96; the “Egress and Reinvasion Assay: Mean PV ratios (19.5h:6h), Replicate 2a” value was found to be 2.25; the “Egress and Reinvasion Assay: Mean PV ratios (19.5h:6h), Replicate 3a” value amounted to 1.23. Besides, in the test with C. parvum [3], the “Egress and Reinvasion Assay: Mean PV ratios (19.5h:6h), Replicate 4a” value was 1.60.

Regarding `Cc1cccc(-n2ncc3c(=O)[nH]c(-n4nc(C)cc4NC(=O)C4CCCC4)nc32)c1` [C-5], the 90% effect concentration (EC90) in the test on C. parvum [1] (setting [5]) came out at 4.99 µM. In the test on C. parvum [3], the “Egress and Reinvasion Assay: Mean PV ratios (19.5h:6h), Average” value came to 0.31; the “Egress and Reinvasion Assay: Mean PV ratios (19.5h:6h), Replicate 1a” value was 0.20; the “Egress and Reinvasion Assay: Mean PV ratios (19.5h:6h), Replicate 2a” value stood at 0.42.

For `CCOc1ccc2cc(-c3nn(CC4CCN(C)CC4)c4ncnc(N)c34)ccc2c1` [BKI-1294], the 90% effect concentration (EC90) with C. parvum [1] (setting [5]) worked out at 22.4 µM. For the same compound, in the test with Cryptosporidium, the “anticryptosporidial activity in the acute IFN-γ knockout mouse infection model” value is “previously demonstrated anticryptosporidial activity”. In the test on C. parvum [3], the “Egress and Reinvasion Assay: Mean PV ratios (19.5h:6h), Average” value is reported as 1.49; the “Egress and Reinvasion Assay: Mean PV ratios (19.5h:6h), Replicate 1a” value worked out at 1.81; the “Egress and Reinvasion Assay: Mean PV ratios (19.5h:6h), Replicate 2a” value turned out to be 1.18.

Consider `c1ccc(CNc2nc(NCc3ccccc3)c3ccccc3n2)cc1` [B-23], for which, in the test on C. parvum [1] (setting [5]), the concentration for an effect of 90% (EC90) was found to be 10.8 µM. In addition, in the test on C. parvum [3], the “Egress and Reinvasion Assay: Mean PV ratios (19.5h:6h), Average” value came to 1.55; the “Egress and Reinvasion Assay: Mean PV ratios (19.5h:6h), Replicate 1a” value worked out at 1.73; the “Egress and Reinvasion Assay: Mean PV ratios (19.5h:6h), Replicate 2a” value stood at 1.36.

Turning to `c1ccc(CNc2nc(NC3CCCC3)nc3ccccc23)cc1` [B-5], the 90% effect concentration (EC90) with C. parvum [1] (setting [5]) was 7.22 µM. Further, in the test with C. parvum [3], the “Egress and Reinvasion Assay: Mean PV ratios (19.5h:6h), Average” value is listed as 1.49; the “Egress and Reinvasion Assay: Mean PV ratios (19.5h:6h), Replicate 1a” value came to 1.74; the “Egress and Reinvasion Assay: Mean PV ratios (19.5h:6h), Replicate 2a” value turned out to be 1.24.

In the case of `Oc1c(CN2CCN(c3ccccc3F)CC2)cc(Br)c2cccnc12` [A-6], in the test on C. parvum [1] (setting [5]), the 90% effect concentration (EC90) came to 1.33 µM. In addition, in the test with C. parvum [3], the “Egress and Reinvasion Assay: Mean PV ratios (19.5h:6h), Average” value is 0.79; the “Egress and Reinvasion Assay: Mean PV ratios (19.5h:6h), Replicate 1a” value came out at 0.65; the “Egress and Reinvasion Assay: Mean PV ratios (19.5h:6h), Replicate 2a” value is listed as 0.93.

As to `CN(C)C[C@H](O)Cn1c2ccc(Br)cc2c2cc(Br)ccc21` (racemic) [Wiskostatin], the EC90 in the test on C. parvum [1] (setting [4]) came to 11.3 µM. Besides, the EC90 in the test with C. parvum [1] (setting [5]) is 11.3 µM. In the test on C. parvum [3], the “Egress and Reinvasion Assay: Mean PV ratios (19.5h:6h), Average” value was 1.04; the “Egress and Reinvasion Assay: Mean PV ratios (19.5h:6h), Replicate 1a” value was determined as 1.34; the “Egress and Reinvasion Assay: Mean PV ratios (19.5h:6h), Replicate 2a” value worked out at 0.98; the “Egress and Reinvasion Assay: Mean PV ratios (19.5h:6h), Replicate 3a” value came to 0.80. Besides, the “Egress and Reinvasion Assay: Mean PV ratios (19.5h:6h), Replicate 4a” value in the test on C. parvum [3] is on record as 1.04.
